Source: patent EP4635945A1, “CRYSTAL FORM OF PROXIMOD, PREPARATION METHOD THEREFOR, AND USE THEREOF” (Jiankuan (Suzhou) Biotechnology Co., Ltd, priority 2022, dated 2024)

What was measured:
[1] = Intrinsic dissolution of tableted crystal forms; type: physicochemical; settings: hydrochloride
[2] = Adhesiveness: PE bag adhesive rate; type: physicochemical; settings: flipped at 5 rpm, 10 minutes in each direction; hydrochloride
Protocol: The bags were sealed, flipped at a rotational speed of 5 rpm for 10 minutes, and continued to be flipped in a different flipping direction at a fixed rotational speed for 10 minutes. The materials were poured out of the bags, and the materials remaining in the bags were accurately weighed to calculate the adhesive rate.
The adhesive rate was calculated according to the following formula: Adhesive rate = (initialmaterialweight-remainingmaterialweight)/contact surface area. [formula]

[3] = Medium pH = 4.0, flow rate 4 mL/minute, 5 min
[4] = Medium pH = 4.0, flow rate 4 mL/minute, 10 min
[5] = Medium pH = 4.0, flow rate 4 mL/minute, 30 min
[6] = Medium pH = 4.0, flow rate 4 mL/minute, 45 min
[7] = Medium pH = 4.0, flow rate 4 mL/minute, 60 min
[8] = Medium pH = 4.0, flow rate 4 mL/minute, 90 min

| Dissolution amount ([1]; Medium Water, 5 min) | Dissolution amount ([1]; Medium Water, 10 min) [mg/mL] | Dissolution amount ([1]; Medium Water, 30 min) [mg/mL] | Dissolution amount ([1]; Medium Water, 45 min) [mg/mL] | Dissolution amount ([1]; Medium Water, 60 min) [mg/mL] | Dissolution amount ([1]; Medium Water, 90 min) [mg/mL] | Dissolution amount [1, 3] [mg/mL] | Dissolution amount [1, 4] [mg/mL] | Dissolution amount [1, 5] [mg/mL] | Dissolution amount [1, 6] [mg/mL] | Dissolution amount [1, 7] [mg/mL] | Dissolution amount [1, 8] [mg/mL] | PE bag adhesive rate [2] [g/cm^2] | Compound |
| --- | --- | --- | --- | --- | --- | --- | --- | --- | --- | --- | --- | --- | --- |
| 0.0005 mg/mL | 0.0010 | 0.0011 | 0.0003 | 0.0010 | 0.0012 | 0.0346 | 0.0462 | 0.0481 | 0.0477 | 0.0487 | 0.0479 | 0.0007 | CCCc1nc(-c2ccc(-c3ccc(CCC(N)(CO)CO)cc3)cc2)co1.Cl [Crystal form A, 2-amino-2-{2-(4'-(2-propyloxazol-4-yl)-[1,1'-biphenyl]-4-yl)ethyl}-1,3-propanediol hydrochloride] |
| Not detected | 0.0002 | 0.0003 | 0.0009 | 0.0003 | 0.0004 | 0.0307 | 0.0404 | 0.0461 | 0.0488 | 0.0469 | 0.0487 | 0.0003 | CCCc1nc(-c2ccc(-c3ccc(CCC(N)(CO)CO)cc3)cc2)co1.Cl [Crystal form B, 2-amino-2-{2-(4'-(2-propyloxazol-4-yl)-[1,1'-biphenyl]-4-yl)ethyl}-1,3-propanediol hydrochloride] |
